Experimental findings from PubChem BioAssay (NCI) are described below.

Among the test systems are SNB-75 CNS; A549 NSCLC; NCI-H460 lung; EKVX NSCLC; HCT-116 colon; 786-0 renal; U251 CNS; SR leukemia; COLO 205 colon; HCC-2998 colon.
Experiment in all cases: NCI tumour cell line growth inhibition, 48 h

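Interpolation was linear, between the two tested concentrations surrounding the appropriate level; five concentrations were tested over 48 hours in 96-well plates. Abbreviation: GI50, concentration required for 50% inhibition of growth. At the TGI there is no net growth.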

For the compound `OCC1CC2C=CCC(C2)C1` (stereo not given), the TGI in the assay with SNB-75 CNS, in the assay on A549 NSCLC, in the assay on NCI-H460 lung, in the assay on EKVX NSCLC, with HCT-116 colon and in the assay with 786-0 renal was more than 100 µM each time. In addition, the TGI with U251 CNS, in the assay with SR leukemia and in the assay with COLO 205 colon was more than 100 µM in each case.
For `COC(=O)C(/C(=N/N)C(=O)Nc1cc(Cl)ccc1Cl)c1nc2ccc([N+](=O)[O-])cc2[nH]c1=O` (stereo not given), the TGI with A549 NSCLC, with NCI-H460 lung, with HCC-2998 colon, in the assay on EKVX NSCLC, with HCT-116 colon and in the assay with 786-0 renal was more than 100 µM throughout. For the same compound, the TGI in the assay on U251 CNS, in the assay on SR leukemia and in the assay with COLO 205 colon was more than 100 µM throughout.
Consider `O=C(N/C(=C\c1cccc([N+](=O)[O-])c1)c1nc2c3c(ccc2[nH]1)C(=O)c1ccccc1C3=O)c1ccccc1`, for which the TGI in the assay on SNB-75 CNS, in the assay on A549 NSCLC, with NCI-H460 lung, in the assay on EKVX NSCLC, in the assay with HCT-116 colon and in the assay on 786-0 renal was more than 100 µM throughout. Further, the TGI in the assay with U251 CNS and with SR leukemia was more than 100 µM throughout.
As to `OC(c1cc2ccccc2[nH]1)C(O)(c1cc2ccccc2[nH]1)c1cc2ccccc2[nH]1` (stereo not given), the TGI is 63 µM with A549 NSCLC; 51.3 µM in the assay with NCI-H460 lung; 44.3 µM with HCC-2998 colon; 60.9 µM with EKVX NSCLC; 27.3 µM with HCT-116 colon; 20.8 µM in the assay on 786-0 renal. Moreover, the TGI in the assay with U251 CNS was 78.4 µM; in the assay on SR leukemia, more than 245 µM; with COLO 205 colon, 8.85 µM.
As for `CCOc1ccc(Nc2ccnc3cc(Cl)ccc23)cc1`, the GI50 in the assay with SNB-75 CNS is 17 µM; in the assay on A549 NSCLC, more than 100 µM; in the assay with NCI-H460 lung, 29.1 µM; with HCC-2998 colon, more than 100 µM; in the assay on HCT-116 colon it was 35 µM; in the assay with 786-0 renal, 41.1 µM. Further, the GI50 is more than 100 µM with U251 CNS, 14.7 µM in the assay with SR leukemia and more than 100 µM in the assay with COLO 205 colon. In addition, the TGI in the assay on SNB-75 CNS was 51.2 µM; in the assay with A549 NSCLC, more than 100 µM; with NCI-H460 lung it was more than 100 µM; in the assay with HCC-2998 colon, more than 100 µM; with HCT-116 colon, more than 100 µM; in the assay on 786-0 renal it was more than 100 µM. For the same compound, the TGI in the assay with U251 CNS, in the assay with SR leukemia and in the assay with COLO 205 colon was more than 100 µM each time.
With `CC1=NC(C)=C(/C(C)=N/NC(=O)c2ccccc2O)C(C)/C1=C(/C)NNC(=O)c1ccccc1O` (stereo not given), the TGI in the assay with SNB-75 CNS was found to be 93.6 µM; with A549 NSCLC, 96.5 µM; in the assay with NCI-H460 lung, 66.6 µM; in the assay on EKVX NSCLC it was 48.4 µM; with HCT-116 colon, 48.3 µM; in the assay on 786-0 renal, 44.3 µM. In addition, the TGI is more than 100 µM in the assay on U251 CNS and 42.5 µM in the assay on SR leukemia.
For the compound `COc1ccc2c(c1)/C(=C\c1c(-c3ccccc3)nc3sccn13)C(=O)N2`, the GI50 was 7.16 µM with SNB-75 CNS; 7.2 µM in the assay with A549 NSCLC; 7.08 µM in the assay with NCI-H460 lung; 12.1 µM in the assay with EKVX NSCLC; 1.43 µM with HCT-116 colon; 9.01 µM in the assay on 786-0 renal. Moreover, the GI50 in the assay with U251 CNS was 5.88 µM; in the assay on SR leukemia, 24 µM; with COLO 205 colon, 18.7 µM. For the same compound, the TGI with SNB-75 CNS is 23.5 µM; in the assay with A549 NSCLC, more than 100 µM; in the assay with NCI-H460 lung it was more than 24.4 µM; in the assay on EKVX NSCLC it was more than 43.6 µM; in the assay with HCT-116 colon it was 8.19 µM; in the assay with 786-0 renal, 31.2 µM. In addition, the TGI with U251 CNS is 27.9 µM; with SR leukemia, more than 100 µM; in the assay on COLO 205 colon, 45.8 µM.
With `COc1ccc(Cc2ccc3[nH]c(=O)cc(C)c3c2)cc1S(=O)(=O)O`, the TGI in the assay with SNB-75 CNS, with A549 NSCLC, in the assay with NCI-H460 lung, in the assay on EKVX NSCLC, in the assay on HCT-116 colon and with 786-0 renal was more than 100 µM throughout. Further, the TGI with U251 CNS, in the assay with SR leukemia and in the assay on COLO 205 colon was more than 100 µM in each case.
Consider `CC1(C)CC[C@]2(C(=O)NCCNCCN)CC[C@]3(C)C(=CC[C@@H]4[C@@]5(C)CCC(=O)C(C)(C)[C@@H]5CC[C@]43C)[C@@H]2C1`, for which the GI50 in the assay with NCI-H460 lung is 1.86 µM; in the assay on HCC-2998 colon, 1.73 µM; with EKVX NSCLC it was 1.74 µM; with HCT-116 colon, 1.75 µM; with 786-0 renal it was 1.71 µM; in the assay on U251 CNS, 1.79 µM. For the same compound, the values for the GI50 with SR leukemia and with COLO 205 colon were 1.7 µM and 2.06 µM, respectively. The TGI came to 3.51 µM in the assay on NCI-H460 lung; 3.18 µM in the assay with HCC-2998 colon; 3.67 µM in the assay on EKVX NSCLC; 3.21 µM with HCT-116 colon; 3.09 µM in the assay with 786-0 renal; 3.46 µM in the assay with U251 CNS. The TGI in the assay on SR leukemia worked out at 4.76 µM; in the assay on COLO 205 colon, 4.18 µM.
As to `OCC#Cc1ccccc1C#Cc1ccc(C#Cc2ccccc2C#CCO)cc1`, the GI50 was 85.1 µM in the assay with SNB-75 CNS; 32.7 µM in the assay with A549 NSCLC; 28.3 µM in the assay on NCI-H460 lung; 34.6 µM in the assay with EKVX NSCLC; 25.8 µM in the assay on HCT-116 colon; 32 µM in the assay on 786-0 renal. Moreover, the GI50 with U251 CNS is 34 µM; with SR leukemia, 22 µM; with COLO 205 colon, more than 100 µM. The TGI in the assay with SNB-75 CNS is more than 100 µM; in the assay with A549 NSCLC it was more than 100 µM; in the assay with NCI-H460 lung it was more than 100 µM; in the assay with EKVX NSCLC, 97.1 µM; in the assay with HCT-116 colon, 66.7 µM; in the assay with 786-0 renal, 82.6 µM. For the same compound, the TGI in the assay on U251 CNS is more than 100 µM; with SR leukemia, 49.5 µM; in the assay on COLO 205 colon, more than 100 µM.
For `[Mn+3].[O-][Cl+3]([O-])([O-])O.[O-]c1ccccc1C=NCCN1CC1.[O-]c1ccccc1C=NCCN1CC1`, the GI50 in the assay with SNB-75 CNS is 25.6 µM; with A549 NSCLC, 38.6 µM; in the assay with NCI-H460 lung it was 27 µM; in the assay on EKVX NSCLC, 41.3 µM; in the assay with HCT-116 colon it was 15.1 µM; in the assay on 786-0 renal it was 27.2 µM. The GI50 in the assay on U251 CNS was 15.7 µM; with SR leukemia, 18.4 µM; with COLO 205 colon, 28.9 µM. The TGI is 70.1 µM with SNB-75 CNS; more than 100 µM with A549 NSCLC; more than 100 µM in the assay on NCI-H460 lung; more than 100 µM with EKVX NSCLC; more than 100 µM with HCT-116 colon; more than 100 µM in the assay on 786-0 renal. Also, the TGI with U251 CNS is 38.6 µM; in the assay with SR leukemia, 39.4 µM; in the assay on COLO 205 colon, 97.3 µM.
Regarding `C=C(C)[C@@H]1C/C=C(/COC(C)=O)CC[C@H]2O[C@@]2(C)CC/C=C(\C)CC1`, the GI50 with A549 NSCLC was 40.1 µM; with NCI-H460 lung, more than 100 µM; in the assay on HCC-2998 colon it was more than 100 µM; in the assay on HCT-116 colon, 38 µM; with 786-0 renal it was 67.9 µM; in the assay with U251 CNS, more than 100 µM. Also, the GI50 is 34.3 µM with SR leukemia and more than 100 µM in the assay with COLO 205 colon. Besides, the TGI in the assay on A549 NSCLC, with NCI-H460 lung, with HCC-2998 colon, in the assay with HCT-116 colon, in the assay with 786-0 renal and with U251 CNS was more than 100 µM in each case. For the same compound, the TGI in the assay with SR leukemia is 91.5 µM; in the assay on COLO 205 colon it was more than 100 µM.
In the case of `COc1ccc(NC(=O)c2ccc(C(F)(F)F)nc2Nc2ccc(Cl)cc2C)cc1Cl`, the GI50 in the assay with SNB-75 CNS was 6.47 µM; in the assay on A549 NSCLC, 5.39 µM; in the assay with NCI-H460 lung, 2.9 µM; in the assay on EKVX NSCLC, 3.47 µM; with HCT-116 colon it was 3.08 µM; with 786-0 renal it was 9.41 µM. For the same compound, the GI50 in the assay with U251 CNS was 4.23 µM; with SR leukemia, 1.72 µM; with COLO 205 colon, 2.72 µM. Besides, the TGI came to 23.9 µM with SNB-75 CNS; 20.6 µM in the assay with A549 NSCLC; 12.1 µM in the assay with NCI-H460 lung; 16.5 µM with EKVX NSCLC; 13.1 µM in the assay on HCT-116 colon; 23.1 µM with 786-0 renal. The TGI with U251 CNS came out at 14.9 µM; with SR leukemia, 6.46 µM; with COLO 205 colon, 10.7 µM.
On to `CCCCN(C)CC(C(C)=O)C(c1ccccc1)c1c(O)c2ccccc2oc1=O` (stereo not given), for which the TGI in the assay with SNB-75 CNS, with A549 NSCLC, in the assay on NCI-H460 lung, in the assay on EKVX NSCLC, with HCT-116 colon and with 786-0 renal was more than 100 µM throughout. In addition, the TGI in the assay on U251 CNS, with SR leukemia and with COLO 205 colon was more than 100 µM throughout.
Regarding `COc1ccc(OC)c(-c2cc(-c3ccc(Cl)cc3)nn2-c2ccccc2)c1`, the GI50 in the assay on A549 NSCLC is 65.8 µM; in the assay on NCI-H460 lung, 33.8 µM; in the assay with HCC-2998 colon it was 26.4 µM; with EKVX NSCLC, 82.8 µM; in the assay with 786-0 renal, 17.3 µM; with SR leukemia it was 4.34 µM. Further, the TGI in the assay on A549 NSCLC was more than 100 µM; in the assay with NCI-H460 lung, more than 100 µM; in the assay on HCC-2998 colon it was 52.8 µM; in the assay with EKVX NSCLC, more than 100 µM; in the assay with 786-0 renal, 57.7 µM; in the assay on SR leukemia, more than 100 µM.
